Measurements as given in ChEMBL document CHEMBL1126360, “-Amino acid analogues as mechanism-based inactivators of -aminobutyric acid aminotransferase” (Bioorg Med Chem Lett, 1992).

Assays:
[1] = biological target: 4-aminobutyrate aminotransferase, mitochondrial (Sus scrofa) (UniProt P80147); assay: Rate constants for inactivation at infinite concentration for inactivation of Gamma-amino-N-butyrate transaminase
[2] = biological target: 4-aminobutyrate aminotransferase, mitochondrial (Sus scrofa, UniProt P80147); assay: Apparent dissociation constants for inactivation of Gamma-amino-N-butyrate transaminase
Chain of 4-aminobutyrate aminotransferase, mitochondrial (P80147 whole entry): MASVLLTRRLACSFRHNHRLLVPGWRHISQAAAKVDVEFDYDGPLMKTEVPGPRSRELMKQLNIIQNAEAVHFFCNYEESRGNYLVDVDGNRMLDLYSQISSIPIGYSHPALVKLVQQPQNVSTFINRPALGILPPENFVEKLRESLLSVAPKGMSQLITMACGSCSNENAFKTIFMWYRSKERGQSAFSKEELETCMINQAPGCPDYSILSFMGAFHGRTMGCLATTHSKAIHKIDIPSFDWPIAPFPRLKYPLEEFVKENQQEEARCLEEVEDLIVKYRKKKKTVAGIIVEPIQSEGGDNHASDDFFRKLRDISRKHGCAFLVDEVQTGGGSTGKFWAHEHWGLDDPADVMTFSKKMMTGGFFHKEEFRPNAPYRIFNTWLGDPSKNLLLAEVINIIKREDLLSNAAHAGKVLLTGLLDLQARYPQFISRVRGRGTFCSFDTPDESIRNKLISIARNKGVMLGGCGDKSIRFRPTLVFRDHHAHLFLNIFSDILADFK

Chain of 4-aminobutyrate aminotransferase, mitochondrial (Sus scrofa) (P80147 whole entry): as above

SMILES	K inact [1]	Ki [2]
N[C@@H](COS(=O)(=O)O)C(=O)O	0.0055 min⁻¹	2.4 mM
C[C@](N)(CF)C(=O)O	0.00059 min⁻¹	6.8 mM

The remaining lines, values ahead:

K inact [1]	Ki [2]	SMILES
0.00093 min⁻¹	6.5 mM	C[C@](N)(CCl)C(=O)O
0.0014 min⁻¹	5.7 mM	C[C@](N)(COP(=O)(O)O)C(=O)O
8.5e-05 min⁻¹	12.8 mM	C=C[C@](C)(N)C(=O)O
